Data published in patent US20230013823A1, “INHIBITORS OF HUMAN IMMUNODEFICIENCY VIRUS REPLICATION” (VIV HEALTHCARE UK (No. 5) LIMITED, priority 2019, published 2023).

Experiments:
[1] = Compound cytotoxicity, XTT-based colorimetric assay; format: cell-based; conditions: human; uninfected MT2 cells, day 4, XTT
Procedure: Compound cytotoxicity and the corresponding CC50 values were determined using the same protocol as described in the antiviral assay except that uninfected cells were used. Cytotoxicity was assessed on day 4 in uninfected MT2 cells by using an XTT (2,3-bis[2-Methoxy-4-nitro-5-sulfophenyl]-2H-tetrazolium-5-carboxyanilide inner salt)-based colorimetric assay (Sigma-Aldrich, St Louis, Mo.).

[2] = system: recombinant NL4-3 virus (Renilla luciferase in nef); experiment: HIV cell culture assay (antiviral activity, luciferase readout in MT-2 cells); format: cell-based; conditions: Renilla, NL43
Outline: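 MT-2 cells were infected for 4-5 days with 293T-derived recombinant NL4-3 reporter virus in the presence of serially diluted compound. Antiviral activity was quantified as luciferase activity using a live-cell substrate. EC50 was derived from the median effect equation.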

SMILES	CC50 at 4 days [1] [nM]	EC50 [2] [nM]
Cn1nc(NS(C)(=O)=O)c2c(Cl)ccc(-n3c([C@H](Cc4cc(F)cc(F)c4)NC(=O)Cn4nc(C(F)F)c5c4C(F)(F)[C@@H]4C[C@H]54)nc4cc(-c5ccn(CCC(C)(F)F)n5)ccc4c3=O)c21 (atropisomer, axis not shown; (P)) [Example 52, N—((S)-1-((3P)-3-(4-chloro-1-methyl-3-(methylsulfonamido)-1H-indazol-7-yl)-7-(1-(3,3-difluorobutyl)-1H-pyrazol-3-yl)-4-oxo-3,4-dihydroquinazolin-2-yl)-2-(3,5-difluorophenyl)ethyl)-2-((3bS,4aR)-3-(difluoromethyl)-5,5-difluoro-3b,4,4a,5-tetrahydro-1H-cyclopropa[3,4]cyclopenta[1,2-c]pyrazol-1-yl)acetamide]	> 100	0.068
Cn1nc(NS(C)(=O)=O)c2c(Cl)ccc(-n3c([C@H](Cc4cc(F)cc(F)c4)NC(=O)Cn4nc(C(F)F)c5c4C(F)(F)[C@@H]4C[C@H]54)nc4cc(-c5ccn(CCCC(F)(F)F)n5)ccc4c3=O)c21 (atropisomer, axis not shown; (P)) [Example 53, N—((S)-1-((3P)-3-(4-chloro-1-methyl-3-(methylsulfonamido)-1H-indazol-7-yl)-4-oxo-7-(1-(4,4,4-trifluorobutyl)-1H-pyrazol-3-yl)-3,4-dihydroquinazolin-2-yl)-2-(3,5-difluorophenyl)ethyl)-2-((3bS,4aR)-3-(difluoromethyl)-5,5-difluoro-3b,4,4a,5-tetrahydro-1H-cyclopropa[3,4]cyclopenta[1,2-c]pyrazol-1-yl)acetamide]	> 100	0.1
Cn1nc(NS(C)(=O)=O)c2c(Cl)ccc(-n3c([C@H](Cc4cc(F)cc(F)c4)NC(=O)Cn4nc(C(F)F)c5c4C(F)(F)[C@@H]4C[C@H]54)nc4cc(-c5ccn(CCOC(F)(F)F)n5)ccc4c3=O)c21 (atropisomer, axis not shown; (P)) [Example 54, N—((S)-1-((3P)-3-(4-chloro-1-methyl-3-(methylsulfonamido)-1H-indazol-7-yl)-4-oxo-7-(1-(2-(trifluoromethoxy)ethyl)-1H-pyrazol-3-yl)-3,4-dihydroquinazolin-2-yl)-2-(3,5-difluorophenyl)ethyl)-2-((3bS,4aR)-3-(difluoromethyl)-5,5-difluoro-3b,4,4a,5-tetrahydro-1H-cyclopropa[3,4]cyclopenta[1,2-c]pyrazol-1-yl)acetamide]	> 100	0.098
Cn1nc(NS(C)(=O)=O)c2c(Cl)ccc(-n3c([C@H](Cc4cc(F)cc(F)c4)NC(=O)Cn4nc(C(F)F)c5c4C(F)(F)[C@@H]4C[C@H]54)nc4cc(-c5ccnc(CF)n5)ccc4c3=O)c21 (atropisomer, axis not shown; (P)) [Example 55, N—((S)-1-((3P)-3-(4-chloro-1-methyl-3-(methylsulfonamido)-1H-indazol-7-yl)-7-(2-(fluoromethyl)pyrimidin-4-yl)-4-oxo-3,4-dihydroquinazolin-2-yl)-2-(3,5-difluorophenyl)ethyl)-2-((3bS,4aR)-3-(difluoromethyl)-5,5-difluoro-3b,4,4a,5-tetrahydro-1H-cyclopropa[3,4]cyclopenta[1,2-c]pyrazol-1-yl)acetamide]	> 100	0.056
Cn1nc(NS(C)(=O)=O)c2c(Cl)ccc(-n3c([C@H](Cc4cc(F)cc(F)c4)NC(=O)Cn4nc(C(F)F)c5c4C(F)(F)[C@@H]4C[C@H]54)nc4cc(-c5ccnc(C(F)F)n5)ccc4c3=O)c21 (atropisomer, axis not shown; (P)) [Example 56, N—((S)-1-((3P)-3-(4-chloro-1-methyl-3-(methylsulfonamido)-1H-indazol-7-yl)-7-(2-(difluoromethyl)pyrimidin-4-yl)-4-oxo-3,4-dihydroquinazolin-2-yl)-2-(3,5-difluorophenyl)ethyl)-2-((3bS,4aR)-3-(difluoromethyl)-5,5-difluoro-3b,4,4a,5-tetrahydro-1H-cyclopropa[3,4]cyclopenta[1,2-c]pyrazol-1-yl)acetamide]	> 100	0.017
Cc1cc(-c2ccc3c(=O)n(-c4ccc(Cl)c5c(NS(C)(=O)=O)nn(C)c45)c([C@H](Cc4cc(F)cc(F)c4)NC(=O)Cn4nc(C(F)F)c5c4C(F)(F)[C@@H]4C[C@H]54)nc3c2)nn1CC(F)(F)C(F)F (atropisomer, axis not shown; (P)) [Example 57, N—((S)-1-((3P)-3-(4-chloro-1-methyl-3-(methylsulfonamido)-1H-indazol-7-yl)-7-(5-methyl-1-(2,2,3,3-tetrafluoropropyl)-1H-pyrazol-3-yl)-4-oxo-3,4-dihydroquinazolin-2-yl)-2-(3,5-difluorophenyl)ethyl)-2-((3bS,4aR)-3-(difluoromethyl)-5,5-difluoro-3b,4,4a,5-tetrahydro-1H-cyclopropa[3,4]cyclopenta[1,2-c]pyrazol-1-yl)acetamide]	> 100	0.13
Cc1cc(-c2ccc3c(=O)n(-c4ccc(Cl)c5c(NS(C)(=O)=O)nn(C)c45)c([C@H](Cc4cc(F)cc(F)c4)NC(=O)Cn4nc(C(F)F)c5c4C(F)(F)[C@@H]4C[C@H]54)nc3c2)nn1CC(F)(F)C(F)(F)F (atropisomer, axis not shown; (P)) [Example 60, N—((S)-1-((3P)-3-(4-chloro-1-methyl-3-(methylsulfonamido)-1H-indazol-7-yl)-7-(5-methyl-1-(2,2,3,3,3-pentafluoropropyl)-1H-pyrazol-3-yl)-4-oxo-3,4-dihydroquinazolin-2-yl)-2-(3,5-difluorophenyl)ethyl)-2-((3bS,4aR)-3-(difluoromethyl)-5,5-difluoro-3b,4,4a,5-tetrahydro-1H-cyclopropa[3,4]cyclopenta[1,2-c]pyrazol-1-yl)acetamide]	> 100	0.21
Cn1nc(NS(C)(=O)=O)c2c(Cl)ccc(-n3c([C@H](Cc4cc(F)cc(F)c4)NC(=O)Cn4ccc(C5CC5)n4)nc4cc(-c5ccn(CC(C)(F)F)n5)ccc4c3=O)c21 (atropisomer, axis not shown; (P)) [Example 61, (S)—N-(1-((3P)-3-(4-chloro-1-methyl-3-(methylsulfonamido)-1H-indazol-7-yl)-7-(1-(2,2-difluoropropyl)-1H-pyrazol-3-yl)-4-oxo-3,4-dihydroquinazolin-2-yl)-2-(3,5-difluorophenyl)ethyl)-2-(3-cyclopropyl-1H-pyrazol-1-yl)acetamide]	> 100	0.057
Cn1nc(NS(C)(=O)=O)c2c(Cl)ccc(-n3c([C@H](Cc4cc(F)cc(F)c4)NC(=O)Cn4ccc(C5CC5)n4)nc4cc(-c5ccn(CC(F)(F)C(F)F)n5)ccc4c3=O)c21 (atropisomer, axis not shown; (P)) [Example 63, (S)—N-(1-((3P)-3-(4-chloro-1-methyl-3-(methylsulfonamido)-1H-indazol-7-yl)-4-oxo-7-(1-(2,2,3,3-tetrafluoropropyl)-1H-pyrazol-3-yl)-3,4-dihydroquinazolin-2-yl)-2-(3,5-difluorophenyl)ethyl)-2-(3-cyclopropyl-1H-pyrazol-1-yl)acetamide]	> 100	0.043
CC(F)(F)Cn1ccc(-c2ccc3c(=O)n(-c4ccc(Cl)c5c(NS(C)(=O)=O)nn(CC(F)F)c45)c([C@H](Cc4cc(F)cc(F)c4)NC(=O)Cn4nc(C(F)F)c5c4C(F)(F)[C@@H]4C[C@H]54)nc3c2)n1 (atropisomer, axis not shown; (P)) [Example 64, N—((S)-1-((3P)-3-(4-chloro-1-(2,2-difluoroethyl)-3-(methylsulfonamido)-1H-indazol-7-yl)-7-(1-(2,2-difluoropropyl)-1H-pyrazol-3-yl)-4-oxo-3,4-dihydroquinazolin-2-yl)-2-(3,5-difluorophenyl)ethyl)-2-((3bS,4aR)-3-(difluoromethyl)-5,5-difluoro-3b,4,4a,5-tetrahydro-1H-cyclopropa[3,4]cyclopenta[1,2-c]pyrazol-1-yl)acetamide]	> 100	0.087
C[C@H](C(=O)N[C@@H](Cc1cc(F)cc(F)c1)c1nc2cc(-c3ccn(CC(C)(F)F)n3)ccc2c(=O)n1-c1ccc(Cl)c2c(NS(C)(=O)=O)nn(C)c12)n1ccc(C2CC2)n1 (atropisomer, axis not shown; (P)) [Example 65, (R)—N—((S)-1-((3P)-3-(4-chloro-1-methyl-3-(methylsulfonamido)-1H-indazol-7-yl)-7-(1-(2,2-difluoropropyl)-1H-pyrazol-3-yl)-4-oxo-3,4-dihydroquinazolin-2-yl)-2-(3,5-difluorophenyl)ethyl)-2-(3-cyclopropyl-1H-pyrazol-1-yl)propanamide]	> 100	0.17
Cn1nc(NS(C)(=O)=O)c2c(Cl)ccc(-n3c([C@H](Cc4cc(F)cc(F)c4)NC(=O)Cn4nc(C(F)(F)F)c5c4C(F)(F)[C@@H]4C[C@H]54)nc4cc(-c5ccn(CC(C)(F)F)n5)ccc4c3=O)c21 (atropisomer, axis not shown; (P)) [Example 66, N—((S)-1-((3P)-3-(4-chloro-1-methyl-3-(methylsulfonamido)-1H-indazol-7-yl)-7-(1-(2,2-difluoropropyl)-1H-pyrazol-3-yl)-4-oxo-3,4-dihydroquinazolin-2-yl)-2-(3,5-difluorophenyl)ethyl)-2-((3bS,4aR)-5,5-difluoro-3-(trifluoromethyl)-3b,4,4a,5-tetrahydro-1H-cyclopropa[3,4]cyclopenta[1,2-c]pyrazol-1-yl)acetamide]	> 100	0.069
